Laboratory results as given in ChEMBL document CHEMBL1201862, “PubChem BioAssay data set” (2004).
The source made the active and inactive calls.

Tests used:
[1] = molecular target: DNA dC->dU-editing enzyme APOBEC-3A (Homo sapiens, UniProt P31941); experiment: Dose Response confirmation of small molecule APOBEC3A DNA Deaminase Inhibitors via a fluorescence-based single-stranded DNA deaminase assay. [Related pubchem assays (depositor defined):AID493011, AID493024]; type: functional
[2] = molecular target: DNA dC->dU-editing enzyme APOBEC-3G (Homo sapiens, UniProt Q9HC16); type: functional;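 also: Dose-response counterscreen measuring inhibition of APOBEC3G DNA deaminase activity, run while confirming APOBEC3A inhibitors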
[3] = molecular target: T1, Eukaryotic translation initiation factor 4H (Homo sapiens, UniProt Q15056); experiment: eIF4H binding inhibition – biochemical, uHTS, fluorescence polarization, translation initiation inhibitor project, primary screen (AID 2012)
[4] = molecular target: T2, Polyadenylate-binding protein 1 (Homo sapiens, UniProt P11940); experiment: blockers of PABP interaction with poly(A) – biochemical, fluorescence polarization, […] (AID 2014)
[5] = molecular target: Nucleotide-binding oligomerization domain-containing protein 2 (Homo sapiens, UniProt Q9HC29); experiment: PubChem AID 2334; type: functional
[6] = molecular target: T3, Nucleotide-binding oligomerization domain-containing protein 1 (Homo sapiens, UniProt Q9Y239); experiment: blockers of NOD1 pathway activity – revised, SAR follow-up (AID 2333); type: functional
T3 sequence (Q9Y239 whole entry): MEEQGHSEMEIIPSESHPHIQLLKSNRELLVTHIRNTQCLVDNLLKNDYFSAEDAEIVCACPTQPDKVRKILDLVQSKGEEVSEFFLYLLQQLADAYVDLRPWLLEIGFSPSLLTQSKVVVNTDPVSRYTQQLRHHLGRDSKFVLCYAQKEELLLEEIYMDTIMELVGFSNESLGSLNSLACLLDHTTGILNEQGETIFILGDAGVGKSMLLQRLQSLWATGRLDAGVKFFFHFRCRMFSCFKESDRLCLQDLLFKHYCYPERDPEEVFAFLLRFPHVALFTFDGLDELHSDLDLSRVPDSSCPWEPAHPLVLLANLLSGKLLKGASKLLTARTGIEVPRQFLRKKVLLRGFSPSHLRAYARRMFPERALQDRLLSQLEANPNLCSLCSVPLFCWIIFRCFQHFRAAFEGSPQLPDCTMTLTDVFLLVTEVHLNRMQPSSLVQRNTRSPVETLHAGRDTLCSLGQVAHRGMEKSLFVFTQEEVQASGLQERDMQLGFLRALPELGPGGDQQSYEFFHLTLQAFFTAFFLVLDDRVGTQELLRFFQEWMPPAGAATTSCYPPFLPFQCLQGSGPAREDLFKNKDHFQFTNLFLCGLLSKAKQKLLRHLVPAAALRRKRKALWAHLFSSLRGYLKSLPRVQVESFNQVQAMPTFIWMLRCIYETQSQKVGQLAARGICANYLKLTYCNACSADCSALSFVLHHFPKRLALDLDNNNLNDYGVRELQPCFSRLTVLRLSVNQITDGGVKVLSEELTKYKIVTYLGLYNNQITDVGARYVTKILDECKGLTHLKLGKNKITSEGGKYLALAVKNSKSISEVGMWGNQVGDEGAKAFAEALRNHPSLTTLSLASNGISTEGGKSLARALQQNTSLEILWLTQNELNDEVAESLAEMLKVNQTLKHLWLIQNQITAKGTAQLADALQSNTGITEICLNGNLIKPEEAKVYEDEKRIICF

[7] = system: HEK293; experiment: cells; details: Homo sapiens;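 also: cells exposed to compound for 14 hours overnight before viability readout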
[8] = molecular target: T4, Interleukin-8 (Homo sapiens, UniProt P10145); experiment: SAR analysis of GM-Tri-DAP induced IL-8 secretion in MCF-7/NOD1 cells - Set 2. [Related pubchem assays (depositor defined):AID1575, AID1578, AID2333]; type: functional, cell-based
T4 sequence (P10145 whole entry): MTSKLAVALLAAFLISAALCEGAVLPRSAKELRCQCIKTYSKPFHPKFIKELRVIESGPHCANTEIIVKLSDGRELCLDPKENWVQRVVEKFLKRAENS

[9] = molecular target: T4, Interleukin-8; experiment: SAR analysis of Tumor necrosis factor alpha (TNF-alpha) induced IL-8 secretion in MCF-7/NOD1 cells - Set 2. [Related pubchem assays (depositor defined):AID1575, AID2250, AID2260]; type: functional, cell-based
[10] = molecular target: Tumor necrosis factor (Homo sapiens, UniProt P01375); experiment: analog potency on TNFa NF-kB signaling – cell-based, revised, SAR follow-up (AID 2337); type: functional
[11] = nonselective StAR promoter luciferase inhibitors – cell-based, luminescence, luciferase reporter, counter-screen for LRH-1 inverse agonist project, dose response (AID 651969); type: functional
[12] = molecular target: T1, Eukaryotic translation initiation factor 4H; experiment: inhibitors of translation initiation factor eIF4H – SAR follow-up (AID 435011); type: functional
[13] = molecular target: Nuclear receptor subfamily 5 group A member 2 (Homo sapiens, UniProt O00482); type: functional, cell-based;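 also: HEK293T cells transfected with LRH-1 and a StAR promoter luciferase reporter; potency for inhibitors that lower LRH-1 driven reporter light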
[14] = molecular target: Steroidogenic factor 1 (Homo sapiens, UniProt Q13285); experiment: Counterscreen for inverse agonists of the liver receptor homolog-1 (LRH-1; NR5A2): Luminescence-based cell-based high throughput dose response assay to identify inverse agonists of the Steroidogenic Factor 1 Nuclear Receptor (SF1; NR5A1).; type: functional
[15] = molecular target: T2, Polyadenylate-binding protein 1; experiment: PABP inhibition in translation initiation, SAR follow-up (AID 435018); type: functional
[16] = molecular target: T5, Intestinal-type alkaline phosphatase (Homo sapiens, UniProt P09923); experiment: Dose Response confirmation of uHTS hits from a small molecule inhibitors of human intestinal alkaline phosphatase via a luminescent assay. [Related pubchem assays (depositor defined):AID2544, AID2574]; type: functional
[17] = molecular target: T5, Intestinal-type alkaline phosphatase; experiment: human intestinal alkaline phosphatase activators, dose response, biochemical, luminescence, uHTS hits (AID 463120); type: functional
[18] = molecular target: Dual specificity protein phosphatase 3 (Homo sapiens, UniProt P51452); experiment: inhibition constants for human DUSP3 – biochemical, colorimetric, SAR follow-up (AID 2004)
[19] = molecular target: NACHT, LRR and PYD domains-containing protein 3 (Homo sapiens, UniProt Q96P20); experiment: NALP3 inhibitors in yeast, dose response, luminescent (AID 488799); type: functional
[20] = molecular target: Glucose-6-phosphate 1-dehydrogenase (Homo sapiens, UniProt P11413); experiment: inhibition of Homo sapiens G6PD, dose series – biochemical, fluorescence, selectivity assay for P. falciparum G6PD inhibitor project, dose response (AID 504792); type: functional
[21] = A Cell Based Secondary Assay To Explore Cytotoxicity of Compounds that Sensitize Mycobacterium Tuberculosis to Beta-Lactam Antibiotics.; type: functional
[22] = Luminescence-based dose response cell-based high throughput screening assay for cytotoxic compounds using the IEC-6 intestinal epithelial cell line. [Related pubchem assays: 1858 (Summary AID.), 1825 (Counterscreen.), 1907 (Confirmation screen.)]; type: functional
[23] = cells; type: functional, cell-based
[24] = luciferase reporter signal reduction – luminescence, H4-C neuroglioblastoma cells, dose response (AID 2458); type: functional, cell-based;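 also: H4 neuroglioblastoma cells stably carrying a luciferase reporter gene fusion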
[25] = alpha-synuclein stem-loop luciferase translation blockers – H4 neuroglioma cells, luminescence, confirmation (AID 1988); type: functional, cell-based
[26] = alpha-synuclein stem-loop translation blockers – luminescence, H4 neuroglioblastoma cells, dose confirmation, confirmation (AID 2454); type: functional, cell-based;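 also: H4 neuroglioblastoma cells carrying an alpha-synuclein 5'UTR luciferase reporter; potency for inhibition of the luciferase signal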
[27] = system: BJ; experiment: cells; type: functional, cell-based; details: Homo sapiens
[28] = HEK-293T viability loss after treatment – luminescence, T-cell screen hits, cytotoxicity control for TCR NF-kB inhibitor project, dose response (AID 489026); type: functional, cell-based;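 also: cells exposed to compound about 14 hours before the viability readout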
[29] = Luminescence Cell-Based Dose Response HTS to Identify Inhibitors of 5'UTR Stem-Loop Driven Prion Protein mRNA Translation in H4 Neuroglioblastoma Cells. [Related pubchem assays: 1827 (Project Summary), 1813 (Primary HTS)]; type: functional
[30] = luciferase reporter signal suppression in cells – H4 neuroglioma cells, luminescence, dose response (AID 1990); type: functional, cell-based
[31] = blockers of SFLLRN-triggered platelet ATP secretion – cell-based, human platelets, luminescence, dry powder, dose response (AID 493100); type: functional
[32] = molecular target: Cyclin-dependent kinase 5/CDK5 activator 1 (Homo sapiens, UniProt Q00535); experiment: blockade of human CDK5 activity – biochemical, cherry-picked samples, set 2, dose response (AID 504545)
[33] = molecular target: T6, Rac GTPase-activating protein 1 (Homo sapiens, UniProt Q9H0H5); experiment: blockers of MgcRacGAP-driven Rac1 GTP hydrolysis – biochemical, ADP Hunter fluorescence, primary and confirmatory, confirmation (AID 624330); type: functional
T6 sequence (Q9H0H5 whole entry): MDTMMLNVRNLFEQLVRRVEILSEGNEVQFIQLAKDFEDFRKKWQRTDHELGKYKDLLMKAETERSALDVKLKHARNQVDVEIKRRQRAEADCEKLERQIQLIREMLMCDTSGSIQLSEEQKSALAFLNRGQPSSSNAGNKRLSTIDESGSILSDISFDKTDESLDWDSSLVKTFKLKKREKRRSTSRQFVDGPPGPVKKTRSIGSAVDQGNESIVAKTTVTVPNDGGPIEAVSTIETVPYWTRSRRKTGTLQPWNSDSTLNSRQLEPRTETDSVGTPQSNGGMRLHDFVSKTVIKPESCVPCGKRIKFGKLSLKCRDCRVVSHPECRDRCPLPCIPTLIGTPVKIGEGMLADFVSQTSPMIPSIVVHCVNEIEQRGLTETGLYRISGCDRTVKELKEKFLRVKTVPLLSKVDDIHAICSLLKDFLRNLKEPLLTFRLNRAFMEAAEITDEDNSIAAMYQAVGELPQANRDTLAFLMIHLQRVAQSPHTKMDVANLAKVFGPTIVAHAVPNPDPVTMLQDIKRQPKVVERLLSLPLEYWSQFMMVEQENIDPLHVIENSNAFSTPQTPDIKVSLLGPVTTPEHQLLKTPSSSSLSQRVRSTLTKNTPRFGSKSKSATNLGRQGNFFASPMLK

[34] = molecular target: Cystic fibrosis transmembrane conductance regulator/Golgi-associated PDZ and coiled-coil motif-containing protein (Homo sapiens, UniProt P13569+Q9HD26); experiment: potency against CAL PDZ-peptide interaction – biochemical, fluorescence polarization, Cerulean-tagged CAL PDZ, cherry-picks, dose response (AID 504773)
[35] = molecular target: T7, Eukaryotic translation initiation factor 2-alpha kinase 3 (Homo sapiens, UniProt Q9NZJ5); experiment: Dose response cell-based high-throughput screening assay to measure PERK inhibition. [Related pubchem assays: 1416 ]; type: functional
[36] = system: BJ; experiment: growth inhibition of engineered Ras-driven BJ cells – cell-based, alamar blue fluorescence, cherrypicked samples, dose response (AID 2631); type: functional; details: Homo sapiens;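 also: confirmatory dose-response assay in RAS-dependent BJ fibroblasts engineered with TERT, LT and ST, with cytotoxicity read by fluorescence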
[37] = molecular target: T7, Eukaryotic translation initiation factor 2-alpha kinase 3; experiment: Counterscreen assay for PERK inhibitors: Dose response cell-based high throughput screening assay to measure inhibition of PERK at 6 hours. [Related pubchem assays: 1522, 1416 ]; type: functional
[38] = system: SN12K1; experiment: cells; type: functional; details: Homo sapiens
[39] = system: P388/ADR; experiment: cells; type: functional; details: Mus musculus
[40] = system: P388; experiment: cells; type: functional; details: Mus musculus

T7 sequence (Q9NZJ5 whole entry): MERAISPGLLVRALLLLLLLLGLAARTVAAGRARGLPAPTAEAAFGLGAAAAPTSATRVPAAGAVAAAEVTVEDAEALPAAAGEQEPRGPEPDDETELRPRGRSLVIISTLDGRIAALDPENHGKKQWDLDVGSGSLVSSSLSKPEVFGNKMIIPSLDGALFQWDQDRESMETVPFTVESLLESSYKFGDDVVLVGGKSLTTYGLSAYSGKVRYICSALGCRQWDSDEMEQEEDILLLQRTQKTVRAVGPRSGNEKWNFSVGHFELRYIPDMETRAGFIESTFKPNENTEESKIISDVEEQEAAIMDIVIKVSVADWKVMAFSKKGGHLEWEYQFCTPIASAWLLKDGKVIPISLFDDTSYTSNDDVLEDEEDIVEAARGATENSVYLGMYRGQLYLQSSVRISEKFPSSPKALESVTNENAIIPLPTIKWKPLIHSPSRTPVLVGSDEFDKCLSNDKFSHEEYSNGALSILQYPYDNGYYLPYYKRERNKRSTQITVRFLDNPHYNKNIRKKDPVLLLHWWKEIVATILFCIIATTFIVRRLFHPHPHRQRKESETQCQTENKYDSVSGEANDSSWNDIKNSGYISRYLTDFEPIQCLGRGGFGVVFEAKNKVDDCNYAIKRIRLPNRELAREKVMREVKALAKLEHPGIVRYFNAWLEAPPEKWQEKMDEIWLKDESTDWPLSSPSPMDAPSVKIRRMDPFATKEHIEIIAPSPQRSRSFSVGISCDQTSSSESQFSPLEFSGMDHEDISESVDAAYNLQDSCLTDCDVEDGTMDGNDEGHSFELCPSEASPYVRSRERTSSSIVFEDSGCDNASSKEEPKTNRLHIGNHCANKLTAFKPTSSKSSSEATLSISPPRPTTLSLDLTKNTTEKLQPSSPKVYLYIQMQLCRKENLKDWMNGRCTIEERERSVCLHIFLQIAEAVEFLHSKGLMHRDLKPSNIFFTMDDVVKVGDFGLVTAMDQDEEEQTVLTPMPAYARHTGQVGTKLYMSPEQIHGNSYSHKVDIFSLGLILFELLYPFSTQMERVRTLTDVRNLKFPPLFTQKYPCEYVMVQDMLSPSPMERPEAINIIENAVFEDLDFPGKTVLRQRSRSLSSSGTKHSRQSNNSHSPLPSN
T5 sequence (P09923 whole entry): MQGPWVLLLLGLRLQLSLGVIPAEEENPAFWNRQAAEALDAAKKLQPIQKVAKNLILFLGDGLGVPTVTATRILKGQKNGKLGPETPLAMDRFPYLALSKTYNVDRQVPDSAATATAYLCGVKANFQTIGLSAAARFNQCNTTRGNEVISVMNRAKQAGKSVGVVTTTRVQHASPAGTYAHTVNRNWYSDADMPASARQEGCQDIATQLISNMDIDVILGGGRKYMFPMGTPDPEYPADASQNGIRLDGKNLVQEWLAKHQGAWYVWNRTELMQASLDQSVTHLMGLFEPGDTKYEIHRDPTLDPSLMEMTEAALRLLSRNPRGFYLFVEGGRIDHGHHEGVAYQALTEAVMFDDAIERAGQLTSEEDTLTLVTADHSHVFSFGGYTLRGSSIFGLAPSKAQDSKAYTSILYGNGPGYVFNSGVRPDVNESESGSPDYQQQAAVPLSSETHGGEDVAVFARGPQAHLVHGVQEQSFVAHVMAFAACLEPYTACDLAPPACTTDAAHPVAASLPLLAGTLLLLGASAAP
T2 sequence (P11940 whole entry, the tested form may be a part): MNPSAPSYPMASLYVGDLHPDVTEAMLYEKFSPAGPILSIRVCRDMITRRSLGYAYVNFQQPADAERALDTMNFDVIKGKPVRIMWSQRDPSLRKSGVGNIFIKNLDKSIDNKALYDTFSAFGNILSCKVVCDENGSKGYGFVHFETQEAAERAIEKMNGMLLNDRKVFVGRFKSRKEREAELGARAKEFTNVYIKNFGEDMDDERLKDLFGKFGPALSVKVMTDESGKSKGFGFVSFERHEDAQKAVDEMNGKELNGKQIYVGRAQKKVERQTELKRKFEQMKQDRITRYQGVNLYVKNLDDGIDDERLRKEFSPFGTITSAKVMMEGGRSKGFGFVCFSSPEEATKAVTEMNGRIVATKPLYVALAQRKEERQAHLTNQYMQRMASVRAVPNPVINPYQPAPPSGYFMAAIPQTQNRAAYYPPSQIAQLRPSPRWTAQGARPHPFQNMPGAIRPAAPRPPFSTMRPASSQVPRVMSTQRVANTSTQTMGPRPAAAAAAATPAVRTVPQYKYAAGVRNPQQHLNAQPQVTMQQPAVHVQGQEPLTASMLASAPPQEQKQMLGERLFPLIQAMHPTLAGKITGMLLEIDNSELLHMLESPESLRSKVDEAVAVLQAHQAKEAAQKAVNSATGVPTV
Sequence of Nucleotide-binding oligomerization domain-containing protein 2 (Q9HC29 whole entry, the tested form may be a part): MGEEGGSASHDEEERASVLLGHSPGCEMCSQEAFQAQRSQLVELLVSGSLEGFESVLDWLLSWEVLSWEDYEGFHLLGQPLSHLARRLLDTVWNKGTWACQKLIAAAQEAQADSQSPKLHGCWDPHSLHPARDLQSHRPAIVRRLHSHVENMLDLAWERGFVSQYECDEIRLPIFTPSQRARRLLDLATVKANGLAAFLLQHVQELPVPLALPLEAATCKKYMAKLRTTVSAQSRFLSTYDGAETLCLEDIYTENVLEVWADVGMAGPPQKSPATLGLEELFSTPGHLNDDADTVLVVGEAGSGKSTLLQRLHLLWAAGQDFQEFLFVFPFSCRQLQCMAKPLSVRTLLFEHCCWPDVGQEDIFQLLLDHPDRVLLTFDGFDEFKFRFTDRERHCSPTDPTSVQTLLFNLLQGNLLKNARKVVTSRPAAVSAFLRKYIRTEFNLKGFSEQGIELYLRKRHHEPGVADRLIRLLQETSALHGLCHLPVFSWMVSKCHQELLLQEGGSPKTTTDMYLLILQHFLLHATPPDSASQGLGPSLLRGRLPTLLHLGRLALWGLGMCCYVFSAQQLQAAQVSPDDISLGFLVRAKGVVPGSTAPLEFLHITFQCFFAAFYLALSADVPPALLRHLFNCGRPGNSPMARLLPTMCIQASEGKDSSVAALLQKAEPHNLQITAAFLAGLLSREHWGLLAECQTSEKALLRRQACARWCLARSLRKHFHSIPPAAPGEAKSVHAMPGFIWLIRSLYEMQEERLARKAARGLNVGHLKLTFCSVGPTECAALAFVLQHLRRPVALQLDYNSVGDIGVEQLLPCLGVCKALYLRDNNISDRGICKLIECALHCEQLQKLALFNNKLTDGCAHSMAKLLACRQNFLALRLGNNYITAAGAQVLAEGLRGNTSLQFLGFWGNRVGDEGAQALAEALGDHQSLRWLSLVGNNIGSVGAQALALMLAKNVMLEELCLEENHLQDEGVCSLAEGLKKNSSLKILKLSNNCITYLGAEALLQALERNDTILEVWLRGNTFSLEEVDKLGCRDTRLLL
Sequence of Tumor necrosis factor (P01375 whole entry): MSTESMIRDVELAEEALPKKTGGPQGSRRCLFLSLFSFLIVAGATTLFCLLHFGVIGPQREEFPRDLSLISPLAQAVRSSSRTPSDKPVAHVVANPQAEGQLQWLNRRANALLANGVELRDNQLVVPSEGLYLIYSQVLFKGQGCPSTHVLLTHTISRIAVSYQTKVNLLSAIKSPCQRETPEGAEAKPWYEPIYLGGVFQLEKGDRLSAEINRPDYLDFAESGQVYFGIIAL
Sequence of DNA dC->dU-editing enzyme APOBEC-3G (Q9HC16 whole entry): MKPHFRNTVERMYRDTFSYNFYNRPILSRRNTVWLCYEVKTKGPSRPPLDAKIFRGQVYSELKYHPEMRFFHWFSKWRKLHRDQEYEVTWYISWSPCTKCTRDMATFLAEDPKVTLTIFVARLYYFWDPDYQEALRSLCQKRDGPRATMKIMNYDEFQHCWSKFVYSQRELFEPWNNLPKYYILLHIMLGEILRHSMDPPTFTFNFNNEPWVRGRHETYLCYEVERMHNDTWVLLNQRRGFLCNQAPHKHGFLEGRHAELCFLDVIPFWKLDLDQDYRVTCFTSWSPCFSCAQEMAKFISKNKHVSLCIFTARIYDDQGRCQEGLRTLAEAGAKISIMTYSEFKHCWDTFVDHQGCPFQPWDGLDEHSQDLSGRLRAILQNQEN
Sequence of Steroidogenic factor 1 (Q13285 whole entry): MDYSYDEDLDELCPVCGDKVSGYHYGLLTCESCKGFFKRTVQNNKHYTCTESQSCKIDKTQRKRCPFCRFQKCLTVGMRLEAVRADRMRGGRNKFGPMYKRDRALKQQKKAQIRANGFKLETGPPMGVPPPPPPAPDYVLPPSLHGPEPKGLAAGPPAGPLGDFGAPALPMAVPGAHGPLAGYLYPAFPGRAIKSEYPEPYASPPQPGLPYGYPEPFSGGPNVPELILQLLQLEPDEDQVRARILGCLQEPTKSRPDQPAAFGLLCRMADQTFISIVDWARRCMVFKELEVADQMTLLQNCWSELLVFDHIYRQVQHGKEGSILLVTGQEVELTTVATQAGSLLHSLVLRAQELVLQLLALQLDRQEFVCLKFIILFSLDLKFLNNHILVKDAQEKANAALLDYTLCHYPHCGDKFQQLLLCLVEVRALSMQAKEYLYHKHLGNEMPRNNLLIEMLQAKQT
Sequence of DNA dC->dU-editing enzyme APOBEC-3A (P31941 whole entry): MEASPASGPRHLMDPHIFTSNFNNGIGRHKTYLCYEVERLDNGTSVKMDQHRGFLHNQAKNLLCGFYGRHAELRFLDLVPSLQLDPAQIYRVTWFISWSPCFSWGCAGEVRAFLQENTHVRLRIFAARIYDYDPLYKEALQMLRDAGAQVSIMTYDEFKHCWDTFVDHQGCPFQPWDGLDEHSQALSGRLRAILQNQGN

Cn1ccccc1=Nc1cccc[n+]1C
IC50 [1]: 2.8 µM (active)
IC50 [2]: 4.12 µM (active)
IC50 [3]: > 100 µM (inactive)
IC50 [4]: 6.54 µM (active)

COc1ccc(C(=O)Cn2c(N)nc3ccccc32)cc1
IC50 [5]: > 20 µM (inactive)
IC50 [6]: > 20 µM (inactive)
IC50 [7]: > 20 µM (inactive)
IC50 [8]: > 25 µM (inactive)
IC50 [9]: > 25 µM (inactive)
IC50 [10]: > 20 µM (inactive)

CC(=O)Nc1ccc(NC(=O)CSc2ccc(-c3ccco3)nn2)cc1
IC50 [11]: 35.9 µM (inactive)
IC50 [12]: 31.1 µM (active)
IC50 [13]: 35.9 µM (inactive)
IC50 [14]: 35.9 µM (inactive)
IC50 [15]: > 100 µM (inactive)

O=S(=O)(c1ccccc1)N1CCCC1c1cccs1 (configuration not stated)
IC50 [16]: > 100 µM (inactive)
EC50 [17]: > 100 µM (inactive)

CCN(CC)c1ccc(Nc2nc(-c3sc(N)nc3C)cs2)cc1
Ki [18]: 30.2 µM (inactive)

Cc1nc2ccc(Nc3nc4cc(S(=O)(=O)N5CCOCC5)ccc4o3)cc2s1
IC50 [19]: > 100 µM (inactive)
IC50 [20]: > 80 µM (inactive)

O=C(COc1ccccc1)Nc1cccc(-c2nnc(-c3ccccc3)o2)c1
CC50 [21]: > 40 µM (active)

CSc1nc(N(C)NC(=O)c2cccc(C)c2)c2ccccc2n1
IC50 [22]: 0.14 µM (active)
EC50 [23]: 0.104 µM (active)
EC50 [24]: 0.087 µM (active)
EC50 [25]: < 0.1 µM (active)
EC50 [26]: 0.073 µM (active)
EC50 [27]: 0.272 µM (active)
IC50 [28]: > 80 µM (inactive)
EC50 [29]: < 0.1 µM (active)
EC50 [30]: < 0.1 µM (active)

O=C(Nc1cccc(NC(=O)C2CCCC2)c1)c1ccccc1Br
AC50 [31]: 8.81 µM (active)

ON=C1c2ccccc2-c2ccc(O)cc21
AC50 [32]: 17.6 µM (active)
IC50 [33]: 23.6 µM (active)

O=C1CC(c2ccccc2)=C(c2ccccc2)C1
AC50 [34]: 18.7 µM (active)

CC[C@@]1(O)C(=O)OCc2c1cc1n(c2=O)Cc2cc3ccccc3nc2-1 [CAMPTOTHECIN]
EC50 [35]: > 55.7 µM (not active)
EC50 [25]: < 0.1 µM (active)
EC50 [36]: 0.00767 µM (active)
EC50 [37]: > 55.7 µM (not active)
GI50 [38]: 0.0245 µM (active)
GI50 [39]: 0.0254 µM (active)
GI50 [40]: 0.0267 µM (active)
EC50 [30]: 0.134 µM (active)
